Reference: patent US10267797B2, “Detection of oral microbial virulence factors” (The Procter & Gamble Company, priority 2015, dated 2019)
Read-outs that look alike come from different tables or passages of the source.

Legend:
[1] = test system: THP-1 cells stimulated by P. gingivalis LPS 1690; assay: Inhibition of LPS stimulated cytokine production in THP-1 cells; type: cell-based, human; details: 0.3 mM to 9 mM citrulline; 300 ng/ml LPS; 24 hours; IL-6, TNF-α, IL-12p70, IL-10, IL-2, IFN-r, IL-1β (FIG. 26)
Description: Citrulline was purchased from Sigma-Aldrich (St. Louis, Mo.). THP1-Dual™ cells were purchased from Invivogen (San Diego, Calif.). Cells were cultured following the manufacturer's instruction, as described in EXAMPLE 11. For treatment, 0.3 mM to 9 mM of citrulline were first added to the culture medium. […] After 24 hours of treatment, media was collected and analyzed for cytokine production using 9-plex kit (Meso Scale Diagnostics Rockville, Md.).

TLR2 = TLR2 (Homo sapiens, UniProt O60603); assay: TLR2-SEAP reporter gene assay in HEK 293T cells; details: P. gingivalis LPS; stannous 1000 uM (FIG. 4)
Description: The cell line is named here as TLR2-SEAP. The reporter gene encodes a secreted enzyme, called embryonic alkaline phosphatase or SEAP. The SEAP reporter is placed under the control of the interferon-β minimal promoter fused to five NFkB and AP-1-binding sites. Furthermore, a CD14 co-receptor gene was transfected into the reporter gene cells expressing TLR2, as CD14 has been identified as a co-receptor for TLR2 ligands to enhance the TLR response. The CD14 co-receptor is needed to transfer LTA to TLR2 receptors. The recombinant TLR2 binds its ligand, or distinct pathogen-associated molecule, initiates a chain of responses, leading to recruitment of NFkB and AP1 transcription factors to the reporter gene promoter, which induce expression of SEAP.
For treatment with LTA, wells of a 96-well plate were seeded with 10,000 cells/well in 100 μL of growth medium. […] On day 4, medium (100 μL) was changed to DMEM medium without fetal calf serum. […] Samples were taken 24 hours later, following addition of samples. Expression of the reporter gene (SEAP) was quantified with a commercially available kit (SEAP Reporter Gene Assay of Cayman Chemical Co., Ann Arbor, Mich.).

TLR4 = biological target: T1, TLR4 (Homo sapiens, UniProt O00206+Q9Y6Y9); type: cell-based; details: for reduction of P. gingivalis LPS activation on the TLR4 reporter system: P. gingivalis LPS 500 ng/ml
T1 construct: host or cells: HEK 293T (HEK-Blue hTLR4)
Description: The cell line is named here as TLR4-SEAP. The reporter gene encodes a secreted enzyme, called embryonic alkaline phosphatase or SEAP. The SEAP reporter is placed under the control of the interferon-β minimal promoter fused to five NFkB and AP-1-binding sites. Furthermore, the TLR4-SEAP cell line also contains a CD14 co-receptor gene, which is needed to transfer LPS to TLR4 receptors. The recombinant TLR binds its ligand, or distinct pathogen-associated molecule, initiates a chain of responses, leading to recruitment of NFkB and AP1 transcription factors to the reporter gene promoter, which induce expression of SEAP.
For treatment, wells of a 96-well plate were seeded with 10,000 cells/well in 100 μL of growth medium. […] On day 4, medium was changed to assay medium (90 μl), which is the DMEM medium without fetal calf serum. […] 10 μl of the bacteria, LPS and culture medium of bacterial growth were added to the TLR4-SEAP cells. Samples were taken 24 hours later, following addition of LPS, bacteria, and culture medium. Expression of the reporter gene (SEAP) was quantified with a commercially available kit (SEAP Reporter Gene Assay of Cayman Chemical Co., Ann Arbor, Mich.).
EC50 was calculated using GraphPad Prism software (GraphPad Software, La Jolla, Calif.).
Tests were conducted to understand whether stannous fluoride could reduce LPS's ability to trigger proinflammatory responses in host cells.

E. coli LPS = details: 0.63 mM; E. coli LPS 15 μg/ml

T1 sequence (Q9Y6Y9 17-160): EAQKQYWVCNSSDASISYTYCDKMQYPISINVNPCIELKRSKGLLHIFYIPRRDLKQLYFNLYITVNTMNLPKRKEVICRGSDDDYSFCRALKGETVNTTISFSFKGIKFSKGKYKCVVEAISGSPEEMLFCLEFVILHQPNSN
T1 sequence (O00206 24-839): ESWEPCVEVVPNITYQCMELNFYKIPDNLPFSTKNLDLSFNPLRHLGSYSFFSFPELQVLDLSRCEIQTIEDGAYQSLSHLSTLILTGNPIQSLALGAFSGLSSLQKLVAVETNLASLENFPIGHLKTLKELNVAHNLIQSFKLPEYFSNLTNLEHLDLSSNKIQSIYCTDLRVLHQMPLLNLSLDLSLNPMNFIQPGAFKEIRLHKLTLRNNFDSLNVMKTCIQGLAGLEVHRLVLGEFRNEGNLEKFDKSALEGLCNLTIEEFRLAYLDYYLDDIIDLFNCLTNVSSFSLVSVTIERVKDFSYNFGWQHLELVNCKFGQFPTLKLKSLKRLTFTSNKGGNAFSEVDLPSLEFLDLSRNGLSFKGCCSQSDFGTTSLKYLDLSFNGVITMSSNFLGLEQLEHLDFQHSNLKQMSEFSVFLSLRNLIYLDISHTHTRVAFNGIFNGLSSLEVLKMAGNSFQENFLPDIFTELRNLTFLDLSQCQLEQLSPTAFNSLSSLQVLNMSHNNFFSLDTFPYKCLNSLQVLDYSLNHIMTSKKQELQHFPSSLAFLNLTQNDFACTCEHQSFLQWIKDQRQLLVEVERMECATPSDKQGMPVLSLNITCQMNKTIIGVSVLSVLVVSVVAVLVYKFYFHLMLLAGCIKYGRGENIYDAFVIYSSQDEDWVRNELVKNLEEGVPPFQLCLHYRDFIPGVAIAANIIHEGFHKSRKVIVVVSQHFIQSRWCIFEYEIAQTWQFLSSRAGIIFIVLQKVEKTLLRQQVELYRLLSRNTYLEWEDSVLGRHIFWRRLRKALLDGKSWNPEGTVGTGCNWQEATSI
Sequence of TLR2 (O60603 21-784): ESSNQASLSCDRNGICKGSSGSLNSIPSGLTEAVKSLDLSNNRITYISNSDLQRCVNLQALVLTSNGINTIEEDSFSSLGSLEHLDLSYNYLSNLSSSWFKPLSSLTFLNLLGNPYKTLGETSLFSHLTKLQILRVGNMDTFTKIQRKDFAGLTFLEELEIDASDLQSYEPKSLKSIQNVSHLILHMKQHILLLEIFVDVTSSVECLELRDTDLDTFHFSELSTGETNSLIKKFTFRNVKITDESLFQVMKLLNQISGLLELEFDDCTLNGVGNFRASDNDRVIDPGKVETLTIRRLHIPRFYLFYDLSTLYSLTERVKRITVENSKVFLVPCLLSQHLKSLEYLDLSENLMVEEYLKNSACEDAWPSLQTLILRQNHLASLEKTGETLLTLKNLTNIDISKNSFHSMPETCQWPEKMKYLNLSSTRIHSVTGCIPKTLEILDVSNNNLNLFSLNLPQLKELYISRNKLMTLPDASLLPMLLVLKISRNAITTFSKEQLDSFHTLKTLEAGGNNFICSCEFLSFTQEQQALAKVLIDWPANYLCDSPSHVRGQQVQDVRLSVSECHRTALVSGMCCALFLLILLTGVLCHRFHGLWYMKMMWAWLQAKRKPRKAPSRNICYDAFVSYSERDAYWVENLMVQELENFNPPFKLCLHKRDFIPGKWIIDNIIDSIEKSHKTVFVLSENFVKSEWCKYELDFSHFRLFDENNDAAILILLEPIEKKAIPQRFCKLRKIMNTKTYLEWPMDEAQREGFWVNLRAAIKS

Compound | effect on P. gingivalis LPS 1690 stimulated proinflammatory cytokine production [1] | level of P. gingivalis induction of TLR-2 (TLR2) | level of E. coli induction of TLR-4 (TLR4; 100 ng/ml E. coli LPS, stannous 500 uM or higher (FIG. 3)) | reduction of P. gingivalis LPS activation on the TLR4 reporter system (TLR4; 3.2 mM (FIG. 5)) | reduction of P. gingivalis LPS activation on the TLR4 reporter system (TLR4; […] (FIG. 5)) | Displacement % (E. coli LPS) [%]
NC(=O)NCCC[C@H](N)C(=O)O [Citrulline] | inhibited | – | – | – | – | –
[F][Sn][F] [Tin (II) fluoride] | – | decreased | decreased | about 50% | about 50% | 12.69
